Assays:
D-263MG (Glioblastoma) = experiment: Bliss excess, mean over the matrix (fraction); higher = more synergy;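 note: after 72 h of two-drug dosing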
In short: (§1)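 After 24 hours at 37°C and 5% CO2 in 1536-well plates, cells in DMEM/F12 or RPMI plus 10% FBS received two-drug dose matrices for 72 hours. Viability came from CellTiter-Glo 2.0 luminescence and was scaled as inhibition, anchored at 0 by vehicle wells and at 1 by blank wells. Combination Emax is taken as the second-highest inhibition in the matrix, and Bliss excess as the observed combination effect less EA + EB − EA·EB, with EA and EB the single-agent effects.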

ACHN (Kidney Carcinoma) = experiment: combination Emax (second highest fraction inhibited in the dose matrix, 72 h); higher = more inhibition; extreme values may be limits of the assay
In short: as §1

EW-24 (Ewing's Sarcoma) = experiment: as above
In short: as §1

[1] = system: EoL-1-cell (Acute Myeloid Leukemia); experiment: as above
In short: as §1

[2] = system: HGC-27 (Gastric Carcinoma); experiment: as above
In short: as §1

[3] = system: HOP-62 (Lung Adenocarcinoma); experiment: as above
In short: as §1

[4] = system: Hs-766T (Pancreatic Carcinoma); experiment: as above
In short: as §1

[5] = system: KARPAS-299 (T-Cell Non-Hodgkin's Lymphoma); experiment: as above
In short: as §1

[6] = system: KMOE-2 (Acute Myeloid Leukemia); experiment: as above
In short: as §1

[7] = system: KYSE-450 (Esophageal Squamous Cell Carcinoma); experiment: as above
In short: as §1

NB69 (Neuroblastoma) = experiment: as above
In short: as §1

[8] = system: NCI-H1915 (Non-Small Cell Lung Carcinoma); experiment: as above
In short: as §1

[9] = system: NCI-H358 (Lung Adenocarcinoma); experiment: as above
In short: as §1

[10] = system: NCI-H727 (Other Solid Carcinomas); experiment: as above
In short: as §1

[11] = system: OE19 (Esophageal Adenocarcinoma); experiment: as above
In short: as §1

[12] = system: OVCAR-4 (Ovarian Carcinoma); experiment: as above
In short: as §1

[13] = system: RF-48 (B-Cell Non-Hodgkin's Lymphoma); experiment: as above
In short: as §1

[14] = system: SCC-15 (Oral Cavity Carcinoma); experiment: as above
In short: as §1

[15] = system: TE-1 (Esophageal Squamous Cell Carcinoma); experiment: as above
In short: as §1

UACC-62 (Melanoma) = experiment: as above
In short: as §1

Compound | Bliss excess (D-263MG (Glioblastoma)) | combination Emax (ACHN (Kidney Carcinoma)) | combination Emax (EW-24 (Ewing's Sarcoma)) | combination Emax [1] | combination Emax [2] | combination Emax [3] | combination Emax [4] | combination Emax [5] | combination Emax [6] | combination Emax [7] | combination Emax (NB69 (Neuroblastoma)) | combination Emax [8] | combination Emax [9] | combination Emax [10] | combination Emax [11] | combination Emax [12] | combination Emax [13] | combination Emax [14] | combination Emax [15] | combination Emax (UACC-62 (Melanoma))
C=CCn1c(=O)c2cnc(Nc3ccc(N4CCN(C)CC4)cc3)nc2n1-c1cccc(C(C)(C)O)n1 [AZD1775] + O=C(c1cc(Cc2n[nH]c(=O)c3ccccc23)ccc1F)N1CCN(C(=O)C2CC2)CC1 [Olaparib] (first compound max 1 µM, partner max 10 µM) | -0.0366 | 0.907 | 0.433 | 0.999 | 0.799 | 0.274 | 0.473 | 0.93 | 0.905 | 0.687 | 0.893 | 0.668 | 0.447 | 0.368 | 0.301 | 0.472 | 0.651 | 0.284 | 0.552 | 0.468
CCN(CCO)CCCOc1ccc2c(Nc3cc(CC(=O)Nc4cccc(F)c4)[nH]n3)ncnc2c1 [AZD2811] + C=CCn1c(=O)c2cnc(Nc3ccc(N4CCN(C)CC4)cc3)nc2n1-c1cccc(C(C)(C)O)n1 [AZD1775] (first compound max 1 µM, partner max 1 µM) | 0.0698 | 0.999 | 0.279 | 1 | 0.896 | 0.161 | 0.346 | 0.911 | 0.89 | 0.61 | 0.885 | 0.522 | 0.416 | 0.311 | 0.651 | 0.472 | 0.522 | 0.296 | 0.601 | 0.391
CCN(CCO)CCCOc1ccc2c(Nc3cc(CC(=O)Nc4cccc(F)c4)[nH]n3)ncnc2c1 [AZD2811] + C[C@@H]1COCCN1C2=NC(=NC(=C2)C3(CC3)[S@](=N)(=O)C)C4=C5C=CNC5=NC=C4 [AZD6738] (first compound max 1 µM, 7x7, partner max 10 µM) | -0.0611 | 0.905 | 0.567 | 1 | 0.802 | 0.436 | 0.547 | 0.936 | 0.615 | 0.63 | 0.815 | 0.325 | 0.55 | 0.559 | 0.864 | 0.688 | 0.462 | 0.437 | 0.449 | 0.519
CCN(CCO)CCCOc1ccc2c(Nc3cc(CC(=O)Nc4cccc(F)c4)[nH]n3)ncnc2c1 [AZD2811] + O=C(c1cc(Cc2n[nH]c(=O)c3ccccc23)ccc1F)N1CCN(C(=O)C2CC2)CC1 [Olaparib] (first compound max 1 µM, 7x7, partner max 10 µM) | -0.0018 | 0.211 | 0.337 | 1 | 0.915 | 0.155 | 0.186 | 0.423 | 0.276 | 0.33 | 0.659 | 0.312 | 0.184 | 0.346 | 0.714 | 0.227 | 0.294 | 0.281 | 0.105 | 0.258
CN(CCO)CC[C@H](CSc1ccccc1)Nc1ccc(S(=O)(=O)NC(=O)c2ccc(N3CCC([C@@H](O)c4ccccc4-c4ccc(Cl)cc4)CC3)cc2)cc1S(=O)(=O)C(F)(F)F [AZD4320] + CN(C)CCCOc1ccc(-c2ccc3ncc4c(c3c2)n(C2CCOCC2)c(=O)n4C)cn1 [AZD0156] (first compound max 1 µM, 7x7, partner max 1 µM) | -0.0256 | 0.125 | 0.876 | 1 | 0.274 | 0.194 | 0.21 | 0.13 | 0.847 | 0.0751 | 0.757 | 0.271 | 0.217 | 0.214 | 0.291 | 0.184 | 0.773 | 0.202 | 0.37 | 0.182
COc1nnc2ccc(N3CCC(c4ccc(OCCN5CCN(C)C(=O)[C@H]5C)cc4)CC3)nn12 [AZD5153] + C=CCn1c(=O)c2cnc(Nc3ccc(N4CCN(C)CC4)cc3)nc2n1-c1cccc(C(C)(C)O)n1 [AZD1775] (first compound max 1 µM, partner max 1 µM) | -0.0619 | 0.835 | 0.609 | 1 | 0.839 | 0.631 | 0.448 | 0.919 | 0.971 | 0.519 | 0.99 | 0.678 | 0.63 | 0.431 | 0.539 | 0.583 | 0.558 | 0.435 | 0.591 | 0.577
COc1nnc2ccc(N3CCC(c4ccc(OCCN5CCN(C)C(=O)[C@H]5C)cc4)CC3)nn12 [AZD5153] + CC1(C)CCC(CN2CCN(c3ccc(C(=O)NS(=O)(=O)c4ccc(NCC5CCOCC5)c([N+](=O)[O-])c4)c(Oc4cnc5[nH]ccc5c4)c3)CC2)=C(c2ccc(Cl)cc2)C1 [Venetoclax] (first compound max 1 µM, 7x7, partner max 1 µM) | -0.0613 | 0.535 | 0.498 | 1 | 0.777 | 0.557 | 0.444 | 0.781 | 0.847 | 0.332 | 0.952 | 0.432 | 0.345 | 0.34 | 0.494 | 0.444 | 0.53 | 0.335 | 0.4 | 0.605
COc1nnc2ccc(N3CCC(c4ccc(OCCN5CCN(C)C(=O)[C@H]5C)cc4)CC3)nn12 [AZD5153] + CCN(CCO)CCCOc1ccc2c(Nc3cc(CC(=O)Nc4cccc(F)c4)[nH]n3)ncnc2c1 [AZD2811] (first compound max 1 µM, 7x7, partner max 1 µM) | -0.0231 | 0.562 | 0.616 | 1 | 0.82 | 0.631 | 0.416 | 0.847 | 0.901 | 0.358 | 0.952 | 0.486 | 0.352 | 0.404 | 0.693 | 0.467 | 0.418 | 0.41 | 0.49 | 0.478
COc1nnc2ccc(N3CCC(c4ccc(OCCN5CCN(C)C(=O)[C@H]5C)cc4)CC3)nn12 [AZD5153] + C[C@@H]1COCCN1C2=NC(=NC(=C2)C3(CC3)[S@](=N)(=O)C)C4=C5C=CNC5=NC=C4 [AZD6738] (first compound max 1 µM, 7x7, partner max 10 µM) | 0.0106 | 0.928 | 0.834 | 1 | 0.859 | 0.664 | 0.543 | 0.985 | 0.988 | 0.481 | 0.991 | 0.546 | 0.698 | 0.59 | 0.616 | 0.711 | 0.629 | 0.524 | 0.617 | 0.664
COc1nnc2ccc(N3CCC(c4ccc(OCCN5CCN(C)C(=O)[C@H]5C)cc4)CC3)nn12 [AZD5153] + Cc1c2c(nn1C)CSCc1cc(n(C)n1)CSc1cc(c3ccccc3c1)OCCCc1c(C(=O)O)n(C)c3c-2c(Cl)ccc13 [AZD5991] (first compound max 1 µM, 7x7, partner max 1 µM) | 0.105 | 0.537 | 0.685 | 1 | 0.987 | 0.602 | 0.459 | 0.978 | 0.936 | 0.494 | 0.998 | 0.502 | 0.448 | 0.388 | 0.623 | 0.523 | 0.473 | 0.436 | 0.511 | 0.969
COc1nnc2ccc(N3CCC(c4ccc(OCCN5CCN(C)C(=O)[C@H]5C)cc4)CC3)nn12 [AZD5153] + Cn1cnc2c(F)c(Nc3ccc(Br)cc3Cl)c(C(=O)NOCCO)cc21 [Selumetinib] (first compound max 1 µM, 7x7, partner max 10 µM) | 0.0205 | 0.634 | 0.444 | 1 | 0.796 | 0.668 | 0.589 | 0.996 | 1 | 0.429 | 1 | 0.732 | 0.589 | 0.678 | 0.631 | 0.492 | 0.362 | 0.584 | 0.601 | 0.947
Cc1c2c(nn1C)CSCc1cc(n(C)n1)CSc1cc(c3ccccc3c1)OCCCc1c(C(=O)O)n(C)c3c-2c(Cl)ccc13 [AZD5991] + C=CCn1c(=O)c2cnc(Nc3ccc(N4CCN(C)CC4)cc3)nc2n1-c1cccc(C(C)(C)O)n1 [AZD1775] (first compound max 1 µM, partner max 1 µM) | -0.0168 | 0.938 | 0.402 | 1 | 0.626 | 0.705 | 0.496 | 0.992 | 0.992 | 0.763 | 0.944 | 0.649 | 0.649 | 0.358 | 0.722 | 0.742 | 0.605 | 0.437 | 0.89 | 0.901
Cc1c2c(nn1C)CSCc1cc(n(C)n1)CSc1cc(c3ccccc3c1)OCCCc1c(C(=O)O)n(C)c3c-2c(Cl)ccc13 [AZD5991] + CC1(C)CCC(CN2CCN(c3ccc(C(=O)NS(=O)(=O)c4ccc(NCC5CCOCC5)c([N+](=O)[O-])c4)c(Oc4cnc5[nH]ccc5c4)c3)CC2)=C(c2ccc(Cl)cc2)C1 [Venetoclax] (first compound max 1 µM, 7x7, partner max 1 µM) | -0.0036 | 0.192 | 0.38 | 1 | 0.895 | 0.0765 | 0.184 | 0.968 | 0.709 | 0.189 | 0.877 | 0.187 | 0.217 | 0.258 | 0.457 | 0.188 | 0.497 | 0.236 | 0.65 | 0.962

From the supplement of paper PMC11061612
